Experimental findings from patent publication US7307097B2, “Chemical compounds” (SmithKline Beechman Corporation, priority 2001, dated 2007) are described below.

Experiment [1] relates to Human umbilical cord endothelial cells (HUVEC). As to the kind of experiment: VEGF-driven cellular proliferation assay: BrdU incorporation assay (VEGF-C). The settings on record: read-out: VEGF-C pIC50 (converted). Format: cell-based. The method, then:
VEGF-driven Cellular Proliferation Assay: BrdU Incorporation Assay (VEGF-C)
Human umbilical cord endothelial cells (HUVEC, Clonetics, CC2519) are passaged in Type I collagen-coated 100-mm petridishes in EGM-MV medium (Clonetics, CC3125) at 37 C. in a humidified 5% CO2, 95% air incubator. (HUVEC passaged more than 6 times in vitro are discarded and not subjected to assaying.) The cells are harvested using trypsin/EDTA, counted using a haemocytometer and plated at 5000 cells/well in a Type I-collagen coated 96-well plate (Becton Dickinson, 354407) in M199 medium (Gibco BRL, 12340-030) containing 5% FBS (Hyclone, A 1115-L) and gentamicin (at 50 ug/ml, Gibco BRL). After incubation overnight at 37° C., the media are replaced with 100 ul of M199 serum-free medium containing compounds at various concentrations with 0.6% DMSO and gentamicin. The compounds are diluted in serum-free M199 medium from 10 mM stock solutions prepared in 100% DMSO. […] The incorporation of BrdU into the proliferating HUVEC are analyzed using BrdU Cell Proliferation ELISA (Roche Molecular Biochemicals, 1647229) according to the manufacturer's protocols. The optical density at 450 nm is measured with a multilabel counter (ARVO SX, Wallac). The percent inhibition of cell growth is calculated relative to blank control wells. […]
On the technique in general: Incorporation of labelled thymidine or its analogues reports DNA synthesis.

The target of experiment [2] is Recombinant GST-Tie2 (Homo sapiens, UniProt Q02763). Kind of experiment: Tie2 fluorescence polarization kinase activity assay (TIE2-FP). The following applies: 200 μM ATP, activated enzyme; read-out: TIE2-FP pIC50 (converted). Format: biochemical. As for the experimental part:
Tie2 Fluorescence Polarization Kinase Activity Assay (TIE2-FP) Activation of Recombinant Tie2 Activation: Recombinant GST-Tie2 is activated by incubating the enzyme in 20 mM Tris-HCl, pH7.5, 12 mM MgCl2, 100 mM NaCl, 20 μM sodium vanidate, 1 mM DTT and 300 μM ATP at room temperature for 2 hours. The activation mixture is then passed through a NAP-25 desalting column (Pharmacia Biotech cat. no. 17-0852-02) to remove the free ATP. The activated enzyme is stored as aliquots at−80° C. in 20mM Tris-HCl, pH7.5 and 100 mM NaCl. Assay Conditions: The final assay conditions are 50 mM HEPES, pH7.5, 5% DMSO (when screening compounds), 200 μM ATP, 5mM MgCl2, 1 mM DTT, 50 μM sodium vanidate, 1 nM activated enzyme, and 200 μM peptide. IC50's of compounds are measured under subsaturating ATP (200 μM) and varing concentrations of activated Tie2 and peptide substrate (RFWKYEFWR-OH; MW 1873 Da, TFA salt). Panvera Anti-phosphotyrosine antibody (Cat#P2840) and PTK Green Tracer (Cat#P2842) are used to detect the phosphorylated peptide. Polarization is measured on a TECAN Polarion in 138-second cycles for 30 minutes at room temperature. IC50's are then determined from the % polarization using normal calculation methods. The IC50 values are converted to pIC50 values, i.e.,−log IC50 in Molar concentration.

In experiment [3] the target is T1, GST-VEGFR2 (Homo sapiens, UniProt P35968).
T1 construct: recombinant constructs of the intracellular domains of human TIE2 tagged by GST; made in house
Kind of experiment: VEGF-R2 enzyme assay (VEGFR-2-E2), LANCE method. In kind it is biochemical. The following applies: 75 uM ATP. The source says: VEGF-R2 Enzyme Assay (VEGFR-2-E2)
The VEGF enzyme assay uses the LANCE method (Wallac) and GST-VEGFR2, baculovirus expressed recombinant constructs of the intracellular domains of […] tagged by GST. The method measures the ability of the purified enzymes to catalyse the transfer of the γ-phosphate from ATP onto tyrosine residues in a biotinylated synthetic peptide, (biotin-aminohexyl-EEEEYFELVAKKKK-NH2). This peptide phosphorylation is detected using the following procedure: GST-VEGFR2 is incubated for 40-60 mins at room temperature with 75 uM ATP, 5 mM MgCl2, 0.1 mM DTT, 0.1 mg/mL BSA and the test compound (diluted from a 10 mM stock in DMSO for desired concentration) in 100 mM HEPES buffer. The reaction is stopped by the addition of EDTA (final concentration 50 mM). Streptavidin linked-APC (allophycocyanin, Molecular Probe) and Europium-labeled anti-phosphorylated tyrosine antibody (Wallac) are then added at the final concentration of 15 nM and 1 nM, respectively. The APC signal is measured using an ARVO multilabel counter (Wallac Berthold, Japan). The percent inhibition of activity is calculated relative to blank control wells. The concentration of test compound that inhibits 50% of activity (IC50) is interpolated using nonlinear regression (Levernberg-Marquardt) and the equation, y=Vmax (1−x/(K+x))+Y2, where “K” is equal to the IC50. […]
On the technique in general: Time-resolved FRET reads energy transfer from a long-lived donor to a nearby acceptor.

Experiment [4] deals with T2, GST-TIE2 (intracellular domains of human TIE2) (Homo sapiens, UniProt Q02763).
T2 construct: made in house
As to the kind of experiment: TIE-2 enzyme assay (TIE-2-E2). In kind it is biochemical. The text has this:
TIE-2 Enzyme Assay (TIE2-E)
The TIE-2 enzyme assay uses the LANCE method (Wallac) and GST-TIE2, baculovirus expressed recombinant constructs of the intracellular domains of human TIE2 (amino acids 762-1104, GenBank Accession # L06139) tagged by GST). The method measures the ability of the purified enzymes to catalyse the transfer of the γ-phosphate from ATP onto tyrosine residues in a biotinylated synthetic peptide, D1-15 (biotin-C6-LEARLVAYEGWVAGKKKamide). This peptide phosphorylation is detected using the following procedure: for enzyme preactivation, GST-TIE2 is incubated for 30 mins at room temperature with 2 mM ATP, 5 mM MgCl2 and 12.5 mM DTT in 22.5 mM HEPES buffer (pH7.4). Preactivated GST-TIE2 is incubated for 30 mins at room temperature in 96 well plates with 1 uM D1-15 peptide, 80 uM ATP, 10 mM MgCl2, 0.1 mg/ml BSA and the test compound (diluted from a 10 mM stock in DMSO, final DMSO concentration is 2.4%) in 1 mM HEPES (pH7.4). The reaction is stopped by the addition of EDTA (final concentration 45 mM). Streptavidin linked-APC (allophycocyanin, Molecular Probe) and Europium-labeled anti-phosphorylated tyrosine antibody (Wallac) are then added at the final concentration of 17 ug/well and 2.1 ug/well, respectively. The APC signal is measured using an ARVO multilabel counter. […] The percent inhibition of activity is calculated relative to blank control wells. […]

Experiment [5] concerns the target T3, human VEGFR3 catalytic domain (Homo sapiens, UniProt P35916, H890Q).
T3 construct: made in house; host or cells: Sf9 insect cells (baculovirus, pFastBac1)
Kind of experiment: VEGFR-3 homogenous time-resolved fluorescence assay (VEGFR-3-HTRF). The following applies: 75 μM ATP, 1 nM enzyme. Format: biochemical. The source says:
VEGFR-3—Homogenous Time-resolved Fluorescence Assay (VEGFR-3-HTRF)
This assay assesses Vascular Endothelial Growth Factor 3 (VEGFR3) tyrosine kinase inhibitory activity in substrate phosphorylation assays. The assay examines the ability of small molecule organic compounds to inhibit the tyrosine phosphorylation of a peptide substrate.
The substrate phosphorylation assays use the VEGFR3 catalytic domain, which is expressed in Sf. 9 insect cells as an amino-terminal GST-tagged fusion protein. The catalytic domain of human VEGFR3 (AA residues #819-1298 based upon GenBank Accession #XM003852) is cloned by PCR from human Placenta Marathon Ready cDNA (Clontech). The PCR product is subcloned into pFastBac1 vector containing an N-terminal GST tag. […]
200 nM VEGFR3 enzyme is activated for 45 minutes at room temperature by incubating the enzyme in buffer containing 100 mM HEPES (pH7.2), 75 μM ATP, 0.3 mM DTT, 0.1 mg/mL BSA, and 10 mM MgCl2. […] Assay plates are left unsealed and are counted in a Wallac Multilabel Counter 1420 (PerkinElmer).
The data for dose responses are plotted as % Control calculated with the data reduction formula 100*(U1-C2)/(C1-C2) versus concentration of compound where U is the unknown value, C1 is the average control value obtained for DMSO, and C2 is the average control value obtained for 0.1M EDTA. […]

T3 sequence (P35916 with tags, fused parts or gaps isoform P35916-1 H890Q): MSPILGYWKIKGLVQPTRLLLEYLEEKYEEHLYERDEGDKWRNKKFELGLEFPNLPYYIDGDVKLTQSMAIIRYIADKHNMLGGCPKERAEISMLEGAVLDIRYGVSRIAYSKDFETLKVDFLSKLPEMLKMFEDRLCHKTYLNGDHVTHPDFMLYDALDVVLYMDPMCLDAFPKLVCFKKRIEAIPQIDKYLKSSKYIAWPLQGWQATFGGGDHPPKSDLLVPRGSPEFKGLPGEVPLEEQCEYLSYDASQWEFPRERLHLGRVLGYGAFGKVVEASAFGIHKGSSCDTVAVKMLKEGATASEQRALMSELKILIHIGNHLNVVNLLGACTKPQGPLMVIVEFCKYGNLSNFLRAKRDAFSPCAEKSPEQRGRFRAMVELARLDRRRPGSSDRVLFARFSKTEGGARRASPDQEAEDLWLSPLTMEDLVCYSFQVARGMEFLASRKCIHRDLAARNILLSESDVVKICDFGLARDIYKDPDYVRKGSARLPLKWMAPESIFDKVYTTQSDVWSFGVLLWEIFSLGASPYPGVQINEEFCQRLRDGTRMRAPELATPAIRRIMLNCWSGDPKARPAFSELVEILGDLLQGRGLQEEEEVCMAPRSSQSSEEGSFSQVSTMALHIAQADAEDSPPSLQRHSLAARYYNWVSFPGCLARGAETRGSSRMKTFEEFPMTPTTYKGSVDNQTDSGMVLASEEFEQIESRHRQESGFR
T2 sequence (Q02763 762-1104): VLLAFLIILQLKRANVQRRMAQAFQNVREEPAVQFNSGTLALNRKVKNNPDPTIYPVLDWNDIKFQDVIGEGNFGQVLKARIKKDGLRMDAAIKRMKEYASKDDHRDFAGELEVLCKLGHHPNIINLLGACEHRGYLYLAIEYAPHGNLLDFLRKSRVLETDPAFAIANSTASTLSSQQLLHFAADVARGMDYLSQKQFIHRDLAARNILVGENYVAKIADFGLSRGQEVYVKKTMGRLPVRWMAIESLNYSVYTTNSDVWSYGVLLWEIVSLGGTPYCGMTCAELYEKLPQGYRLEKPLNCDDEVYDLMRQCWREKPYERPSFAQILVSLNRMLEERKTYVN
T1 sequence (P35968 786-1356 limits assumed): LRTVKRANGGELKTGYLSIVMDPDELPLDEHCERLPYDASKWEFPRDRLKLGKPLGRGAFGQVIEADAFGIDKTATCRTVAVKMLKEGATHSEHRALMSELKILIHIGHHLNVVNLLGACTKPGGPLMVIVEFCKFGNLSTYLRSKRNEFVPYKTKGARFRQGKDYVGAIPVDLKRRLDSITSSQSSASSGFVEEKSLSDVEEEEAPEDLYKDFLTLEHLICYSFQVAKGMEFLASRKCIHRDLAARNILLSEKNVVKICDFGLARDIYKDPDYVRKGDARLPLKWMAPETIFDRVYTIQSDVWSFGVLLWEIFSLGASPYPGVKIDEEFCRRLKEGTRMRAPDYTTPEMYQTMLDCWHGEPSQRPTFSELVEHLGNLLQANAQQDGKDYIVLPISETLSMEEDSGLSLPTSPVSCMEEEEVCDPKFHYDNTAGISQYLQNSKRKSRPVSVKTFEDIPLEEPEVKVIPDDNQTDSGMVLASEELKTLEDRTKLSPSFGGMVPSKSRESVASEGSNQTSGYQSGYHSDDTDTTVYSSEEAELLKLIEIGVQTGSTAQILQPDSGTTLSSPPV
Chain of Recombinant GST-Tie2 (Q02763 23-1124): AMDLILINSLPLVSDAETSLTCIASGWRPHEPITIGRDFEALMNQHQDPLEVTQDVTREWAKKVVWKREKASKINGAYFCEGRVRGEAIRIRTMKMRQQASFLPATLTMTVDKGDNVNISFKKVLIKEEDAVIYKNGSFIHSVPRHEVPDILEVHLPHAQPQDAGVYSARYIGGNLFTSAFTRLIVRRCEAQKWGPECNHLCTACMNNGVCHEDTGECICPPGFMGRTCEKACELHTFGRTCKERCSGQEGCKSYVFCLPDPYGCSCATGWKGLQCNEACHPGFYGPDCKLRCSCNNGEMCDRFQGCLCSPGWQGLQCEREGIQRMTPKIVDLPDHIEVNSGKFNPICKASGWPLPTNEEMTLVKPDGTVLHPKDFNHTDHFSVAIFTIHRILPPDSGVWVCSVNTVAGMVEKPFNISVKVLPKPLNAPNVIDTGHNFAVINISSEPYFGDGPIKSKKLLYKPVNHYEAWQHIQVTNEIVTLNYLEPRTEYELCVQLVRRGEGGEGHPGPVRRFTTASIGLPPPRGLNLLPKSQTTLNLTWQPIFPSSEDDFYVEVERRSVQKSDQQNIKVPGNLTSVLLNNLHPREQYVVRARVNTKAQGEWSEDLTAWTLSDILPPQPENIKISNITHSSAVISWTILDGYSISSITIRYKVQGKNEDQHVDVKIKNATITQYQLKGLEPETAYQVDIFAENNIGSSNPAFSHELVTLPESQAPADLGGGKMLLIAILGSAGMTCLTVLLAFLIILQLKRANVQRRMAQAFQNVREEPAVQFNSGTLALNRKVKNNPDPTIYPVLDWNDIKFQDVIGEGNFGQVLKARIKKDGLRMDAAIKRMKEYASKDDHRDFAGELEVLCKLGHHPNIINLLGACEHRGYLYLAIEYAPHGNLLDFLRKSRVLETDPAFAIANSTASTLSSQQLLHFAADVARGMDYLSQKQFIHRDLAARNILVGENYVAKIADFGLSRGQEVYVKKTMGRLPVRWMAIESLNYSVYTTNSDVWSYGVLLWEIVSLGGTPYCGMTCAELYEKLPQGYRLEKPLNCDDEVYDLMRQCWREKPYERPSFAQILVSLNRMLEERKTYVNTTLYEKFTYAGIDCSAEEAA

Consider `CC(C)(C)n1nc(-c2ccc(NC(=O)Nc3cc(C(F)(F)F)ccc3F)cc2)c(C(N)=O)c1N` [Example 1, 5-Amino-1-tert-butyl-3-{4-[3-(2-fluoro-5-trifluoromethyl-phenyl)-ureido]-phenyl}-1H-pyrazole-4-carboxylic acid amide], for which the IC50 in experiment [1] and in experiment [2] was less than 100 nM each time.

Take `CC(C)(C)c1cc(NC(=O)Nc2ccc(-c3nn(C(C)(C)C)c(N)c3C(N)=O)cc2)no1` [Example 35, 5-Amino-1-tert-butyl-3-{4-[3-(5-tert-butyl-isoxazol-3-yl)-ureido]-phenyl}-1H-pyrazole-4-carboxylic acid amide]: the IC50 in experiment [3] (read-out: VEGFR-2-E2 pIC50 (converted)), in experiment [4] (read-out: TIE-2-E2 pIC50 (converted)) and in experiment [5] (read-out: VEGFR-3-HTRF pIC50 (converted)) was less than 100 nM in each case.

For the compound “N,N-Dimethylamino-{4-[3-(fluoro-trifluoromethyl-phenyl)-ureido]-phenyl}-methyl-1H-pyrazole-4-carboxylic acid amide [Example 34]”, the “VEGFR-2-E2 pIC50” value in experiment [3] is given as “+ (+ = pIC50 of 5.0-6.0)”. Moreover, in experiment [4], the “TIE-2-E2 pIC50” value is listed as “+++ (+++ = pIC50 > 7.0)”. For the same compound, in experiment [5], the “VEGFR-3-HTRF pIC50” value is “+ (+ = pIC50 of 5.0-6.0)”.
